Laboratory results from patent US20090143279A1 (priority 2007, published 2009).
Where two headings read alike, the source gives them in different places.

Legend:
[1] = tested on: mitochondrial membrane potential; type: cell-based, mouse
[2] = tested on: reactive oxygen species; type: cell-based, mouse
[3] = tested on: OXPHOS gene expression; type: cell-based, mouse
[4] = tested on: nuOXPHOS transcripts; type: cell-based, mouse
[5] = tested on: mtOXPHOS transcripts; type: cell-based, mouse
[6] = tested on: cytochrome c; type: cell-based, mouse
[7] = tested on: C2C12 myotubes
[8] = tested on: cellular dehydrogenase activity
[9] = composite Z-score vs DMSO, Conc 20 μM
[10] = composite Z-score vs DMSO wells, Conc 20 μM
[11] = 20 μM, composite Z-score vs DMSO
[12] = Conc 20 μM, normalized score vs mock-treated (DMSO) wells
[13] = composite Z-score vs DMSO, Conc 10.62 μM
[14] = composite Z-score vs mock-treated (DMSO) wells, Conc 20 μM

SMILES: CC(C)=CCC/C(C)=C/CC/C(C)=C/CO [farnesol]
- ΔΨm [1, 9]: −0.153
- ROS [2, 9]: 0.550
- GE-HTS [3, 9]: −0.066
- nucOX [4, 9]: 0.106
- mitoOX [5, 9]: −0.401
- cyt c [6, 9]: −0.437
- Viability [7, 9]: −1.327
- MTT [8, 9]: −1.554

SMILES: CC(C)(OC(=O)c1ccccc1)[C@@H]1Cc2cc3ccc(=O)oc3cc2O1 [felamidin]
- ΔΨm [1, 9]: 0.600
- ROS [2, 9]: 0.710
- GE-HTS [3, 9]: 0.966
- nucOX [4, 9]: 0.835
- mitoOX [5, 9]: 1.050
- cyt c [6, 9]: 0.921
- Viability [7, 9]: 0.224
- MTT [8, 9]: −0.475

SMILES: CC(NCCC(c1ccccc1)c1ccccc1)c1ccccc1 (centres unmarked) [fendiline]
- ΔΨm [1, 10]: −1.174
- ROS [2, 10]: 0.912
- GE-HTS [3, 10]: −1.005
- nucOX [4, 10]: −0.896
- mitoOX [5, 10]: −0.951
- cyt c [6]: −0.405
- cyt c [6, 10]: −0.752
- Viability [7, 10]: −0.080
- MTT [8, 10]: −1.007

SMILES: O=C(COc1ccc(Cl)cc1)N1CCN(Cc2ccc3c(c2)OCO3)CC1 [fipexide]
- ΔΨm [1]: −0.624
- ΔΨm [1, 11]: −0.354
- ROS [2]: 0.307
- ROS [2, 11]: 0.873
- GE-HTS [3]: 0.169
- GE-HTS [3, 11]: −0.241
- nucOX [4]: 0.163
- nucOX [4, 11]: −0.010
- mitoOX [5]: 0.155
- mitoOX [5, 11]: −0.657
- cyt c [6]: 0.573
- cyt c [6, 11]: −0.071
- Viability [7]: −0.617
- Viability [7, 11]: 0.721
- MTT [8]: −0.924
- MTT [8, 11]: −0.186

SMILES: Oc1ccc2c(c1)O[C@H](c1ccc(O)c(O)c1)[C@@H](O)C2 [fisetinidol, reference compound]
- ΔΨm (composite Z-score) [1, 12]: −1.528
- ROS (composite Z-score) [2, 12]: −0.215
- GE-HTS (composite Z-score) [3, 12]: −0.998
- nucOX (composite Z-score) [4, 12]: −1.107
- mitoOX (composite Z-score) [5, 12]: −0.536
- cyt c (composite Z-score) [6, 12]: 0.234
- Viability (composite Z-score) [7, 12]: −1.412
- MTT (composite Z-score) [8, 12]: −1.804

SMILES: COc1cc(O)c(C(=O)/C=C/c2ccccc2)c(OC)c1 [flavokawain B]
- ΔΨm [1, 9]: −0.302
- ROS [2, 9]: 0.292
- GE-HTS [3, 9]: −1.453
- nucOX [4, 9]: −1.423
- mitoOX [5, 9]: −1.291
- cyt c [6, 9]: 0.708
- Viability [7, 9]: 0.583
- MTT [8, 9]: −0.298

SMILES: O=c1[nH]c(=O)n([C@H]2C[C@H](O)[C@@H](CO)O2)cc1F [floxuridine]
- ΔΨm [1, 10]: −1.275
- ROS [2, 10]: 0.063
- GE-HTS [3, 10]: 0.909
- nucOX [4, 10]: 0.993
- mitoOX [5, 10]: 0.539
- cyt c [6, 10]: −0.314
- Viability [7, 10]: −0.712
- MTT [8, 10]: −1.643

SMILES: CC(=O)[C@@]1(O)CC[C@H]2[C@@H]3C[C@H](C)C4=CC(=O)C=C[C@]4(C)[C@@]3(F)[C@@H](O)C[C@@]21C [fluorometholone]
- ΔΨm [1, 13]: −0.299
- ROS [2, 13]: 2.141
- GE-HTS [3, 13]: 0.446
- nucOX [4, 13]: 0.038
- mitoOX [5, 13]: 1.187
- cyt c [6, 13]: −0.324
- Viability [7, 13]: −0.965
- MTT [8, 13]: −1.306

SMILES: Fc1ccc(C(c2ccccc2)(c2ccccc2F)n2ccnc2)cc1 (centres unmarked) [flutrimazole]
- ΔΨm [1, 11]: −0.429
- ROS [2, 11]: 0.781
- GE-HTS [3, 11]: −0.763
- nucOX [4, 11]: −0.592
- mitoOX [5, 11]: −0.915
- cyt c [6, 11]: 0.904
- Viability [7, 11]: 0.858
- MTT [8, 11]: −0.356

SMILES: C[C@]12CCC(=O)C(O)=C1CC[C@@H]1[C@@H]2CC[C@]2(C)C(=O)CC[C@@H]12 [formestane]
- ΔΨm [1, 9]: −0.608
- ROS [2, 9]: 1.013
- GE-HTS [3, 9]: 0.097
- nucOX [4, 9]: 0.050
- mitoOX [5, 9]: 0.121
- cyt c [6, 9]: −0.115
- Viability [7, 9]: −0.582
- MTT [8, 9]: −0.725

SMILES: COc1cc2ccc(=O)oc2c(OC)c1OC [fraxidin methyl ether]
- ΔΨm [1, 14]: −0.713
- ROS [2, 14]: 0.276
- GE-HTS [3, 14]: −0.124
- nucOX [4, 14]: −0.104
- mitoOX [5, 14]: −0.103
- cyt c [6, 14]: −0.098
- Viability [7, 14]: −1.325
- MTT [8, 14]: −2.013

SMILES: C[C@H]1C(=O)CC[C@@H]2[C@]1(C)CC[C@H]1[C@@]2(C)CC[C@@]2(C)[C@@H]3CC(C)(C)CC[C@]3(C)CC[C@]12C [friedelin]
- ΔΨm [1, 9]: −0.867
- ROS [2, 9]: 0.449
- GE-HTS [3, 9]: −1.043
- nucOX [4, 9]: −1.150
- mitoOX [5, 9]: −0.600
- cyt c [6, 9]: 0.614
- Viability [7, 9]: 0.082
- MTT [8, 9]: −1.362

SMILES: NCCCC(=O)O [gamma-aminobutyric acid]
- ΔΨm [1, 10]: 0.550
- ROS [2, 10]: 0.209
- GE-HTS [3, 10]: −0.119
- nucOX [4, 10]: 0.212
- mitoOX [5, 10]: −0.693
- cyt c [6, 10]: −0.038
- Viability [7, 10]: 1.043
- MTT [8, 10]: −0.777
